Test results: PubChem BioAssay (NCI)
“And” between values parts separate entries of the source, which are not always exact repeats. Identical values can stand only once.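 Interpolation was linear, between the two tested concentrations surrounding the appropriate level; five concentrations were tested over 48 hours in 96-well plates. The concentration for 50% growth inhibition is given as GI50. TGI marks complete inhibition of growth.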

Assays:
Experiment in all cases: NCI-60 cell line screen, 48 h
SK-OV-3 ovarian = system: SK-OV-3 ovarian
TK-10 renal = system: TK-10 renal
K-562 leukemia = system: K-562 leukemia
MALME-3M melanoma = system: MALME-3M melanoma
NCI-H23 lung = system: NCI-H23 lung
KM12 colon = system: KM12 colon
CCRF-CEM leukemia = system: CCRF-CEM leukemia
SF-295 CNS = system: SF-295 CNS
NCI-H460 lung = system: NCI-H460 lung
DMS 273 small cell lung = system: DMS 273 small cell lung
A498 renal = system: A498 renal
LXFL 529 NSCLC = system: LXFL 529 NSCLC
SW-620 colon = system: SW-620 colon
UACC-62 melanoma = system: UACC-62 melanoma
A549 NSCLC = system: A549 NSCLC
M14 melanoma = system: M14 melanoma
HCT-116 colon = system: HCT-116 colon
EKVX NSCLC = system: EKVX NSCLC
COLO 205 colon = system: COLO 205 colon
KM20L2 colon = system: KM20L2 colon
OVCAR-8 ovarian = system: OVCAR-8 ovarian
M19-MEL melanoma = system: M19-MEL melanoma
U251 CNS = system: U251 CNS
OVCAR-4 ovarian = system: OVCAR-4 ovarian
HT29 colon = system: HT29 colon
HCC-2998 colon = system: HCC-2998 colon
HOP-62 NSCLC = system: HOP-62 NSCLC
SNB-19 CNS = system: SNB-19 CNS
UACC-257 melanoma = system: UACC-257 melanoma
CAKI-1 renal = system: CAKI-1 renal
HOP-92 NSCLC = system: HOP-92 NSCLC
ACHN renal = system: ACHN renal
HCT-15 colon = system: HCT-15 colon
SK-MEL-28 melanoma = system: SK-MEL-28 melanoma
UO-31 renal = system: UO-31 renal
DMS 114 small cell lung = system: DMS 114 small cell lung
MOLT-4 leukemia = system: MOLT-4 leukemia
OVCAR-5 ovarian = system: OVCAR-5 ovarian
786-0 renal = system: 786-0 renal
SNB-78 CNS = system: SNB-78 CNS
NCI-H522 lung = system: NCI-H522 lung
IGROV1 ovarian = system: IGROV1 ovarian
OVCAR-3 ovarian = system: OVCAR-3 ovarian
HL-60(TB) leukemia = system: HL-60(TB) leukemia
NCI-H226 lung = system: NCI-H226 lung
RPMI-8226 leukemia = system: RPMI-8226 leukemia
HOP-18 NSCLC = system: HOP-18 NSCLC
SNB-75 CNS = system: SNB-75 CNS
SK-MEL-5 melanoma = system: SK-MEL-5 melanoma
SN12C renal = system: SN12C renal
DLD-1 colon = system: DLD-1 colon
SF-539 CNS = system: SF-539 CNS
SF-268 CNS = system: SF-268 CNS
MDA-MB-231 breast = system: MDA-MB-231 breast
MDA-N = system: MDA-N
PC-3 prostate = system: PC-3 prostate
BT-549 breast = system: BT-549 breast
XF 498 CNS = system: XF 498 CNS
SR leukemia = system: SR leukemia
SK-MEL-2 melanoma = system: SK-MEL-2 melanoma
RXF-631 renal = system: RXF-631 renal
RXF 393 renal = system: RXF 393 renal

## Cc1ccc(C(=O)/C=C/c2ccccc2Cl)cc1
SK-OV-3 ovarian
  TGI: 99.5 µM
TK-10 renal
  TGI: 61.7 µM
K-562 leukemia
  TGI: 46 µM
MALME-3M melanoma
  TGI: 53.6 µM
NCI-H23 lung
  TGI: 40.1 µM
KM12 colon
  TGI: 30.2 µM
CCRF-CEM leukemia
  TGI: 42.6 µM
SF-295 CNS
  TGI: 39.8 µM
NCI-H460 lung
  TGI: 29.1 µM
DMS 273 small cell lung
  TGI: 29.4 µM
A498 renal
  TGI: 72.5 µM
LXFL 529 NSCLC
  TGI: 28.7 µM
SW-620 colon
  TGI: 27 µM
UACC-62 melanoma
  TGI: 27.7 µM
A549 NSCLC
  TGI: 85.4 µM
M14 melanoma
  TGI: 31.4 µM
HCT-116 colon
  TGI: 25.6 µM
EKVX NSCLC
  TGI: 33.6 µM
COLO 205 colon
  TGI: 47.2 µM
KM20L2 colon
  TGI: 30.9 µM
OVCAR-8 ovarian
  TGI: 29.6 µM
M19-MEL melanoma
  TGI: 33.5 µM
U251 CNS
  TGI: 30.3 µM
OVCAR-4 ovarian
  TGI: 34.6 µM
HT29 colon
  TGI: 29.7 µM
HCC-2998 colon
  TGI: 33.2 µM
HOP-62 NSCLC
  TGI: > 100 µM
SNB-19 CNS
  TGI: 32.5 µM
UACC-257 melanoma
  TGI: 33.6 µM
CAKI-1 renal
  TGI: 34.6 µM
HOP-92 NSCLC
  TGI: 63.5 µM
ACHN renal
  TGI: 29.4 µM
HCT-15 colon
  TGI: 29.1 µM
SK-MEL-28 melanoma
  TGI: 29.2 µM
UO-31 renal
  TGI: 32.8 µM
DMS 114 small cell lung
  TGI: 35.5 µM
MOLT-4 leukemia
  TGI: 56.1 µM
OVCAR-5 ovarian
  TGI: 41.9 µM
786-0 renal
  TGI: 29.7 µM
SNB-78 CNS
  TGI: 46.8 µM
NCI-H522 lung
  TGI: 26.9 µM
IGROV1 ovarian
  TGI: 32.9 µM
OVCAR-3 ovarian
  TGI: 31 µM
HL-60(TB) leukemia
  TGI: 42.8 µM
NCI-H226 lung
  TGI: 61 µM
RPMI-8226 leukemia
  TGI: 44.4 µM
HOP-18 NSCLC
  TGI: 76.1 µM
SNB-75 CNS
  TGI: 44.8 µM
SK-MEL-5 melanoma
  TGI: 38.5 µM
SN12C renal
  TGI: 39.3 µM
DLD-1 colon
  TGI: 36 µM
SF-539 CNS
  TGI: 38.9 µM
SF-268 CNS
  TGI: 48 µM

## CO[C@H](/C(C)=C/C=C/C(C)=C/c1coc(C)n1)[C@H](C)[C@H]1C[C@@H](O)[C@@]2(C)O[C@H]2/C=C/[C@@H](C)[C@@H]2C[C@@H](CC(=O)O2)C[C@H]2O[C@@H]2C(=O)O1
MDA-MB-231 breast
  GI50: 0.942 pM
TK-10 renal
  GI50: 0.042 µM
  TGI: > 69.5 µM
MDA-N
  TGI: 2.15 pM
PC-3 prostate
  TGI: 2.37 pM
BT-549 breast
  GI50: 0.0133 nM
  TGI: 2.81 µM
M14 melanoma
  GI50: 0.1 pM
KM20L2 colon
  TGI: 0.0005 µM
XF 498 CNS
  TGI: 2.25 µM and 0.576 µM
UACC-257 melanoma
  TGI: 5 µM and 50 µM and 11.4 µM
ACHN renal
  TGI: > 64 µM
SR leukemia
  TGI: > 100 µM
OVCAR-5 ovarian
  TGI: 3.99 µM and 31 µM and > 31.6 µM
786-0 renal
  GI50: 0.106 pM

## CC(C)OCN1COCN=C1NC#N
SK-OV-3 ovarian
  TGI: > 100 µM
TK-10 renal
  TGI: > 100 µM
K-562 leukemia
  TGI: > 100 µM
MALME-3M melanoma
  TGI: > 100 µM
NCI-H23 lung
  TGI: > 100 µM
KM12 colon
  TGI: > 100 µM
SF-295 CNS
  TGI: > 100 µM
NCI-H460 lung
  TGI: > 100 µM
DMS 273 small cell lung
  TGI: > 100 µM
A498 renal
  TGI: > 100 µM
LXFL 529 NSCLC
  TGI: > 100 µM
SW-620 colon
  TGI: 34.8 µM
UACC-62 melanoma
  TGI: > 100 µM
A549 NSCLC
  TGI: > 100 µM
M14 melanoma
  TGI: > 100 µM
HCT-116 colon
  TGI: > 100 µM
EKVX NSCLC
  TGI: > 100 µM
COLO 205 colon
  TGI: 47.9 µM
KM20L2 colon
  TGI: > 100 µM
OVCAR-8 ovarian
  TGI: > 100 µM
M19-MEL melanoma
  TGI: > 100 µM
U251 CNS
  TGI: > 100 µM
OVCAR-4 ovarian
  TGI: > 100 µM
HT29 colon
  TGI: > 100 µM
HCC-2998 colon
  TGI: > 100 µM
HOP-62 NSCLC
  TGI: > 100 µM
SNB-19 CNS
  TGI: > 100 µM
UACC-257 melanoma
  TGI: > 100 µM
CAKI-1 renal
  TGI: > 100 µM
HOP-92 NSCLC
  TGI: > 100 µM
ACHN renal
  TGI: > 100 µM
HCT-15 colon
  TGI: 34.2 µM
SK-MEL-28 melanoma
  TGI: > 100 µM
UO-31 renal
  TGI: > 100 µM
DMS 114 small cell lung
  TGI: > 100 µM
SR leukemia
  TGI: > 100 µM
MOLT-4 leukemia
  TGI: > 100 µM
OVCAR-5 ovarian
  TGI: > 100 µM
786-0 renal
  TGI: > 100 µM
NCI-H522 lung
  TGI: > 100 µM
IGROV1 ovarian
  TGI: > 100 µM
SK-MEL-2 melanoma
  TGI: > 100 µM
OVCAR-3 ovarian
  TGI: > 100 µM
HL-60(TB) leukemia
  TGI: > 100 µM
NCI-H226 lung
  TGI: > 100 µM
HOP-18 NSCLC
  TGI: > 100 µM
SNB-75 CNS
  TGI: > 100 µM
SK-MEL-5 melanoma
  TGI: > 100 µM
RXF-631 renal
  TGI: > 100 µM
SN12C renal
  TGI: > 100 µM
DLD-1 colon
  TGI: 57.6 µM
RXF 393 renal
  TGI: > 100 µM
SF-539 CNS
  TGI: > 100 µM
SF-268 CNS
  TGI: > 100 µM

## O=C1OC(=O)C2C3CCC(O3)C12 (centres undefined)
SK-OV-3 ovarian
  TGI: > 100 µM
TK-10 renal
  TGI: > 100 µM
K-562 leukemia
  TGI: > 100 µM
MALME-3M melanoma
  TGI: > 100 µM
NCI-H23 lung
  TGI: > 100 µM
KM12 colon
  TGI: > 100 µM
CCRF-CEM leukemia
  TGI: > 100 µM
SF-295 CNS
  TGI: > 100 µM
NCI-H460 lung
  TGI: > 100 µM
DMS 273 small cell lung
  TGI: > 100 µM
A498 renal
  TGI: > 100 µM
LXFL 529 NSCLC
  TGI: > 100 µM
SW-620 colon
  TGI: > 100 µM
UACC-62 melanoma
  TGI: > 100 µM
A549 NSCLC
  TGI: > 100 µM
M14 melanoma
  TGI: > 100 µM
HCT-116 colon
  TGI: > 100 µM
EKVX NSCLC
  TGI: > 100 µM
COLO 205 colon
  TGI: > 100 µM
OVCAR-8 ovarian
  TGI: > 100 µM
M19-MEL melanoma
  TGI: > 100 µM
U251 CNS
  TGI: > 100 µM
XF 498 CNS
  TGI: > 100 µM
HT29 colon
  TGI: > 100 µM
HCC-2998 colon
  TGI: > 100 µM
HOP-62 NSCLC
  TGI: > 100 µM
SNB-19 CNS
  TGI: > 100 µM
UACC-257 melanoma
  TGI: > 100 µM
CAKI-1 renal
  TGI: > 100 µM
HOP-92 NSCLC
  TGI: > 100 µM
ACHN renal
  TGI: > 100 µM
SK-MEL-28 melanoma
  TGI: > 100 µM
UO-31 renal
  TGI: > 100 µM
DMS 114 small cell lung
  TGI: > 100 µM
SR leukemia
  TGI: > 100 µM
MOLT-4 leukemia
  TGI: > 100 µM
OVCAR-5 ovarian
  TGI: > 100 µM
786-0 renal
  TGI: > 100 µM
SNB-78 CNS
  TGI: > 100 µM
IGROV1 ovarian
  TGI: > 100 µM
SK-MEL-2 melanoma
  TGI: > 100 µM
OVCAR-3 ovarian
  TGI: > 100 µM
HL-60(TB) leukemia
  TGI: > 100 µM
NCI-H226 lung
  TGI: > 100 µM
RPMI-8226 leukemia
  TGI: > 100 µM
HOP-18 NSCLC
  TGI: > 100 µM
SK-MEL-5 melanoma
  TGI: > 100 µM
SN12C renal
  TGI: > 100 µM
DLD-1 colon
  TGI: > 100 µM
RXF 393 renal
  TGI: > 100 µM
SF-539 CNS
  TGI: > 100 µM
SF-268 CNS
  TGI: > 100 µM
